Test results: article PMC11415492 (Nature Communications, 2024)
“And” between values parts separate entries of the source, which are not always exact repeats. Identical values can stand only once. Counter-ions that a name gives are not always drawn. Like-named read-outs stand apart in the source and are kept apart here.

Key:
in vitro = conditions: human, pH 7.4
hMOR = hMOR (Homo sapiens, UniProt P35372); assay: cell-based
[1] = Noribogaine clinical dose escalation data (plasma concentration, QT); assay type: in vivo; conditions: from reported clinical total plasma concentrations and own human plasma protein binding
h5-HT2A = h5-HT2A (Homo sapiens, UniProt P28223); assay: IP1 functional assay, agonist; assay type: cell-based; conditions: up to 10 µM
Sequence of h5-HT2A (P28223 whole entry): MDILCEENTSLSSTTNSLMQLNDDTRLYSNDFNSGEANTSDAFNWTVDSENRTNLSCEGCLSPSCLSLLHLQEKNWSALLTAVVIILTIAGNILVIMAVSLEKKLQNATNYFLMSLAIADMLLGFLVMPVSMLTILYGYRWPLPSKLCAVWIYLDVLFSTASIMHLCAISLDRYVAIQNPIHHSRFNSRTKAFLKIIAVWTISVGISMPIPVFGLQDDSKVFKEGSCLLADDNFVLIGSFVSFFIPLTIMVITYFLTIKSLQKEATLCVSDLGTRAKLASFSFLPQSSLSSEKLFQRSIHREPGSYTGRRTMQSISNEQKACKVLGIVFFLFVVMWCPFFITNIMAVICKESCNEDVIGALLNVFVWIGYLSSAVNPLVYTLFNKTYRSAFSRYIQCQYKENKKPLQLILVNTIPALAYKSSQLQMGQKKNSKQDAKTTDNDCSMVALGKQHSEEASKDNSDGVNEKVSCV

rat NMDA receptor = assay: rat NMDA radioligand displacement ([3H]MK-801); assay type: binding
[2] = human
[3] = target: T1, human nicotinic acetylcholine receptor (nAChR α3β4) (Homo sapiens, UniProt P30926+P32297); assay: nAChR α3β4 inhibition, electrophysiology (commercial); assay type: cell-based
T1 construct: purchased contracted research organization (eurofinsdiscoveryservices.com) item CYL8057IF2
T1 sequence (P32297 32-505): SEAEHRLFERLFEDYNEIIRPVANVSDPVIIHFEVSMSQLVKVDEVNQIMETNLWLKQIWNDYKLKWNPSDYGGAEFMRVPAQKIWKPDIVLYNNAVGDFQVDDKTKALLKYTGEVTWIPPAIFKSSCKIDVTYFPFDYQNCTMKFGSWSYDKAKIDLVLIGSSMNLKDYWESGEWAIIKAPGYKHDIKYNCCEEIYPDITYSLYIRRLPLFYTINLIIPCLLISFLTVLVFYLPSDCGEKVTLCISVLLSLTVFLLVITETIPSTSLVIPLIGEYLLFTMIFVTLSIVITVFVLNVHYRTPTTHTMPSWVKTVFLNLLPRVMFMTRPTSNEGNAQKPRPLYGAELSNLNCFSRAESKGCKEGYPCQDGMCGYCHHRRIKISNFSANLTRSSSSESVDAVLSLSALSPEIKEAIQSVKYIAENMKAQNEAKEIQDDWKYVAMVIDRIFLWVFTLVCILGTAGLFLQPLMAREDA
T1 sequence (P30926 22-498): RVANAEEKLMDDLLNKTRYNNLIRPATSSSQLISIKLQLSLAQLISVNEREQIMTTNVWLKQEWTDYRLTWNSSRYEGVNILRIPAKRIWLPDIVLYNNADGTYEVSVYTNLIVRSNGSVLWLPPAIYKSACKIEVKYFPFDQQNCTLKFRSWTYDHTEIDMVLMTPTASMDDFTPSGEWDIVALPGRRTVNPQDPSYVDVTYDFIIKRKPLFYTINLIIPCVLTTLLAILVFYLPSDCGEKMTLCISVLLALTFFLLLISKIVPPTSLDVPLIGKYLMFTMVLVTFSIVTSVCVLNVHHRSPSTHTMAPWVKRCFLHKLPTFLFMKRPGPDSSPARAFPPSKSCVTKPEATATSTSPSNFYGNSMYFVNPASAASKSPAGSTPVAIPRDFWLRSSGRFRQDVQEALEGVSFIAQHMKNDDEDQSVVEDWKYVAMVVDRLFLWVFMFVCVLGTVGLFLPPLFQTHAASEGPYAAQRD

hERG potassium channel = target: T2, hERG potassium channel (Homo sapiens, UniProt Q12809); conditions: lit. value; cited from earlier work
T2 construct: purchased contracted research organization (eurofinsdiscoveryservices.com) item 4094

[4] = 180 mg oral dose; cited from earlier work
hSERT = target: T3, hSERT (Homo sapiens, UniProt P31645); assay: hSERT inhibition assay (APP+ fluorescence uptake); assay type: cell-based
T3 construct: expressed in transfected cells
T3 sequence (P31645 whole entry): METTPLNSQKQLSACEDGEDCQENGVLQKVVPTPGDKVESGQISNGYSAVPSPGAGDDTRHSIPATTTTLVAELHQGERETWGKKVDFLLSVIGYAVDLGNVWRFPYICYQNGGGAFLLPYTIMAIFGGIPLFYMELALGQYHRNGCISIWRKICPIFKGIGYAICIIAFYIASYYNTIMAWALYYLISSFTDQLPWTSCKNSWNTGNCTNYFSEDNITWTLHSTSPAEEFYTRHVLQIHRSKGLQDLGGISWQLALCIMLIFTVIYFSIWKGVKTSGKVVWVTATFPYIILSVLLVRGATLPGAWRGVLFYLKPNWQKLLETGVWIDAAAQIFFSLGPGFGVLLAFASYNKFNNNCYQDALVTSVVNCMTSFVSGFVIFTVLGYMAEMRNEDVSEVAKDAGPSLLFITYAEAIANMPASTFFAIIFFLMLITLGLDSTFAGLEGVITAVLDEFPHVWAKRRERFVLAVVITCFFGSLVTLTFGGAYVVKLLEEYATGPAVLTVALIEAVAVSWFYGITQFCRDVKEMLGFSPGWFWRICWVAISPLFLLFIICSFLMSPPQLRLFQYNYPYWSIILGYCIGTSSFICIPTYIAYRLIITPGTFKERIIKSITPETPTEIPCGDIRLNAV
Procedure: Stably transfected hSERT-HEK cellular cultures were maintained in Dulbecco’s Minimal Essential Medium (DMEM) with GlutaMAX (Gibco-Thermo Fisher Scientific, Waltham, MA) with the following additions: 10% (v/v) Fetal Bovine Serum (FBS, Atlanta Biologicals, Flowery Branch, GA), 100 U/mL Penicillin 10 μg/mL Streptomycin (Gibco-Thermo Fisher Scientific, Waltham, MA), and 500 μg/mL Geneticin (G418) (Sigma Aldrich, St. Louis, MO). Singly transfected cells were seeded at a density of 0.09 × 10^6 cells/well in poly-D-Lysine (Sigma Aldrich, St. Louis, MO) coated white solid-bottom 96-well plates (Greiner Bio-One, Kremsmünster, Austria). Cells were grown for 44 h in aqueous media at 37 °C under 5% CO2 atmosphere. […] A final solution of 120 μL of PBS was finally added to all corresponding wells for cell maintenance before measuring fluorescence uptake (BioTek H1MF plate reader (BioTek Instruments, Winooski, VT), APP+ excitation and emission wavelengths 436 and 500 nm). Recorded inhibitor values were first subtracted from vehicular values to quantify the respective fluorescence uptake. Data were analyzed using the dose-response-inhibitor nonlinear curve fitting model (log[inhibitor] vs response (four parameters) in Graphpad Prism 10 (Graphpad Software, La Jolla, CA).

h5-HT2B = h5-HT2B (Homo sapiens, UniProt P41595); assay: IP1 functional assay, antagonist; assay type: cell-based; conditions: read-out: % Inhibition of Control Agonist Response
Sequence of h5-HT2B (P41595 whole entry): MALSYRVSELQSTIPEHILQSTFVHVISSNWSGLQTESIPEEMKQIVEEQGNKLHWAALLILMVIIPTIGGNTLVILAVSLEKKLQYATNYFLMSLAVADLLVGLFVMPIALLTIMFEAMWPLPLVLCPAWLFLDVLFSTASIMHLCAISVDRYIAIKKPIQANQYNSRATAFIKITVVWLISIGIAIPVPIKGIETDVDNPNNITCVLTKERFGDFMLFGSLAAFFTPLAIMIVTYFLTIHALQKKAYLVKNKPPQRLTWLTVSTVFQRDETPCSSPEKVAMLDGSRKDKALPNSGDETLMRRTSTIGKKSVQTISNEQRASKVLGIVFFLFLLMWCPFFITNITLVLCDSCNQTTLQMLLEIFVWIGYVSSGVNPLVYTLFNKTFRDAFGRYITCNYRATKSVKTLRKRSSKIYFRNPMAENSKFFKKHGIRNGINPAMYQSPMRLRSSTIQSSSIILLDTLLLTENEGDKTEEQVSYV

rKOR [5] = target: T4, rKOR (Rattus norvegicus, UniProt P34975); assay: G protein activation BRET assay (GαoB); assay type: cell-based; conditions: for EC50: HEK-293T
T4 construct: signal peptide (N); expressed in transfected cells; host or cells: HEK-293T, transient (PEI)
T4 sequence (P34975 whole entry): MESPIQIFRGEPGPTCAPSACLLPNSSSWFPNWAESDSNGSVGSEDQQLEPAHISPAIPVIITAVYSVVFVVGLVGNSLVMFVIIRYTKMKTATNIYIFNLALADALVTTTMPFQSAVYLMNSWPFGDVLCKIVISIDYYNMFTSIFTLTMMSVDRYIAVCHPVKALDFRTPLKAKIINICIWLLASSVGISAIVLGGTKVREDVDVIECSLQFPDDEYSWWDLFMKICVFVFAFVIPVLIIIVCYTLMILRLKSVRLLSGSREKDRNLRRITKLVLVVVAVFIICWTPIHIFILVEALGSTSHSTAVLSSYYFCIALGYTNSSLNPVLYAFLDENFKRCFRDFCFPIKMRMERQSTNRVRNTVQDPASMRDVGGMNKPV

rKOR [6] = target: T4, rKOR; assay: Nanobody Nb33 sensor recruitment BRET assay; assay type: cell-based; conditions: for response, Fig. S5c concentration-response point (replicates): Log [Drug]
hKOR [7] = target: T5, hKOR (Homo sapiens, UniProt P41145); assay: KOR [35S]GTPγS agonist assay (commercial); assay type: biochemical; conditions: agonist, n = 1
T5 construct: expressed in transfected cells; host or cells: HEK-293T, transient (PEI)
T5 sequence (P41145 whole entry): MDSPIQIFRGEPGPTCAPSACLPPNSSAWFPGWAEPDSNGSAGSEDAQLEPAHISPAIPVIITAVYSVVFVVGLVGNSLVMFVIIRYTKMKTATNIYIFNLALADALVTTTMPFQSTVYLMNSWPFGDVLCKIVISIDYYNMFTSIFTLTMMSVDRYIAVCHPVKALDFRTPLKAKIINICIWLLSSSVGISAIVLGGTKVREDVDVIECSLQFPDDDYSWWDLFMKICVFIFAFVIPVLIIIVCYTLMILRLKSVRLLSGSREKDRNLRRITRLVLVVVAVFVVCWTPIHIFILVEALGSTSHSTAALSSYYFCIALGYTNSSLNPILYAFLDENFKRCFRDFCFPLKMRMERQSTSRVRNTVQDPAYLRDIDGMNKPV

hNOP = target: T6, hNOP (Homo sapiens, UniProt P41146); assay: human NOP (Orphanin ORL1) radioligand displacement; assay type: binding
T6 construct: purchased contracted research organization (eurofinsdiscoveryservices.com) item 260600
T6 sequence (P41146 whole entry): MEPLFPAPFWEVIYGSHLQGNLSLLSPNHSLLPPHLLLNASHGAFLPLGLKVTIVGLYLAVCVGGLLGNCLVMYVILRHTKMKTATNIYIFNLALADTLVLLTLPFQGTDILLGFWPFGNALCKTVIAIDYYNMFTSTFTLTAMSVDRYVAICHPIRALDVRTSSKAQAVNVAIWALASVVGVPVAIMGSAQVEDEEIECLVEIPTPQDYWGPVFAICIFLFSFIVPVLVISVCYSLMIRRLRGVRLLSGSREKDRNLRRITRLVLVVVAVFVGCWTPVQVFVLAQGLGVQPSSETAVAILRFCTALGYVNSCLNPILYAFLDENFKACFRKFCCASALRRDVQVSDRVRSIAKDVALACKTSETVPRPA

male rats = assay: Food maintained (operant) responding; assay type: in vivo, rat; conditions: 40 mg/kg i.p.
Procedure: For food maintained responding studies, food access was restricted such that rats were maintained at 90% of their normal body weight until responding stabilized, at which point rats were provided 12–15 g of rodent chow in addition to the food pellets earned during the experimental session.
Rats were lever trained as described in the general methods. Responding was maintained as described with notable difference in timeout (TO) period 6 min and sessions lasting 2 h or until a maximum of 20 pellets was delivered. […] Responding was considered stable when variation in the number of reinforcers for three consecutive sessions was less than 20%. For the group receiving oxa-noribogaine, data were analyzed using a two-way ANOVA with Šidák’s multiple comparisons test for post hoc comparison.

hKOR [8] = target: T5, hKOR; assay: Nanobody Nb33 sensor recruitment BRET assay; assay type: cell-based

Sequence of hMOR (P35372 whole entry): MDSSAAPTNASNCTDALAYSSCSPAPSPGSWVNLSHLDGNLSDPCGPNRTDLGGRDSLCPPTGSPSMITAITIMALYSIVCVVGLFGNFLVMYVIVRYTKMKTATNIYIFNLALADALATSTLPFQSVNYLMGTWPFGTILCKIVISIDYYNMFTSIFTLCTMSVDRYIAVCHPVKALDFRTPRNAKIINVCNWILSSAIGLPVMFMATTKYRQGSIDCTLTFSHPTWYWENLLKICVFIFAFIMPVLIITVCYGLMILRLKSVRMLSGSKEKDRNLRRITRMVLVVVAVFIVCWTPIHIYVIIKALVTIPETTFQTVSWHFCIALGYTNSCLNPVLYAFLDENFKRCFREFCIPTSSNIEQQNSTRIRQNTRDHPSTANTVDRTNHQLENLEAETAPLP

## CCC1CC2CC3c4[nH]c5ccc(O)cc5c4CCN(C2)C13 (centres unmarked) [Noribogaine, Noribogaine hydrochloride]
In vitro
  recovery at 4 h, 5 µM: 75%
In vitro; plasma
  fraction unbound: 0.401
hMOR
  EC50: 11.1 µM
  Emax: 57%
[1]; 60 mg oral dose, mild QT effect
  estimated free plasma noribogaine Cmax: approximately 100 nM
[1]; 180 mg oral dose
  estimated free plasma noribogaine Cmax: 300 to 400 nM
h5-HT2A
  agonist activity at h5-HT2R: No agonist activity
Rat NMDA receptor
  IC50: 42 µM
Rat NMDA receptor; 1.00E-04 M
  NMDA receptor radioligand displacement, concentration-response point (Fig. S3c): 73
Rat NMDA receptor; 1.00E-05 M
  NMDA receptor radioligand displacement, concentration-response point (Fig. S3c): 14
Rat NMDA receptor; 1.00E-06 M
  NMDA receptor radioligand displacement, concentration-response point (Fig. S3c): 5
Rat NMDA receptor; 2.15E-05 M
  NMDA receptor radioligand displacement, concentration-response point (Fig. S3c): 32
Rat NMDA receptor; 4.64E-05 M
  NMDA receptor radioligand displacement, concentration-response point (Fig. S3c): 53
Rat NMDA receptor; [3H]MK-801 displacement, n = 1
  IC50: 42.2 µM
[2]
  % Stability (4 h): 105%
[2]; plasma, pH 7.4
  % Unbound: 40.1%
[3]
  IC50: 5 µM
[3]; electrophysiology, n = 1, (95% CI)
  IC50: 4.96 µM
hERG potassium channel
  Ki: 2 µM
[4]
  QT prolongation: > 500 ms
hSERT
  Emax: 104%
h5-HT2B; 1.00E-05 M
  inhibition at 10 µM: 10%
h5-HT2B; 1.00E-06 M
  inhibition at 1 µM: 7%
rKOR [5]
  EC50: 6.1 µM
rKOR [5]; (95% CI)
  EC50: 6.24 µM
rKOR [5]; normalized to Emax of U-50,488
  Emax: 52%
rKOR [6]; M = -4
  response, Fig. S5c concentration-response point (replicates): 0.6832 and -2.533 and 1.849 and 9.706 and 9.178 and 4.549 and -7.153 and 2.312 and 4.8409
rKOR [6]; M = -5
  response, Fig. S5c concentration-response point (replicates): 9.7994 and 6.733 and 8.435 and 9.706 and 10.7702 and 15.0341 and 0.9856 and -0.8825 and 4.299
rKOR [6]; M = -6
  response, Fig. S5c concentration-response point (replicates): 9.626 and 6.623 and 8.559 and 3.312 and 9.163 and -0.7272 and 9.077 and 6.531 and 9.714
rKOR [6]; M = -7
  response, Fig. S5c concentration-response point (replicates): 8.087 and 5.264 and 16.9405 and 8.98 and 10.0186 and 11.1512 and 4.05 and 6.477 and 19.1494
rKOR [6]; M = -8
  response, Fig. S5c concentration-response point (replicates): 10.1716 and 9.452 and 9.651 and 4.904 and -0.3201 and 10.6815 and 14.8896 and 2.949 and 7.869
rKOR [6]; M = -9
  response, Fig. S5c concentration-response point (replicates): 2.743 and 3.189 and 8.9111 and 2.535 and 1.402 and 3.813 and 4.639 and -0.2876 and 6.5008
rKOR [6]; M = -10
  response, Fig. S5c concentration-response point (replicates): 4.986 and 10.7522 and 12.8464 and -2.314 and -2.554 and 4.868 and 5.9 and 1.688 and 15.6928
rKOR [6]; M = -11
  response, Fig. S5c concentration-response point (replicates): 8.177 and 6.107 and 7.7052 and 7.712 and 6.632 and -6.719 and 26.9849 and 11.0819 and 18.0666
rKOR [6]; at 100 µM
  % effect at 100 µM: < 4%
hKOR [7]
  Emax: 73%
hKOR [7]; (95% CI)
  EC50: 8.33 µM
hNOP; at 10 µM, n = 1
  % displacement at 10 µM: < 0%
hNOP; up to 10 µM
  binding affinity for nociceptin receptor (ORL-1/NOP): No binding affinity
Male rats
  suppression of responding maintained by food on day 1: > 80%
hKOR [8]
  % effect at 100 µM: < 3%
